Laboratory results from article PMC8750527 (Cancers, 2021).

Tests used:
DAOY = experiment: MTT assay, 48 h exposure, DAOY MB cells; type: cell-based, human; settings: Homo sapiens, Daoy; Table 1; MTT, 48 h exposure; mean ± SEM
Description: (§1) HDF (3000 cells), C8-D1A (5000 cells), D458 (5000 cells), DAOY (2000 cells), HD-MB03 (10,000 cells) and CHLA-01-Med (10,000 cells) were seeded at an approximate confluency of 50% in 96-well plates (Corning Inc., Corning, NY, USA) in 100 µL medium per well. A range from 50 nM to 150 µM of every drug was tested. The effects of the antiangiogenic compounds were measured using a 3-[4,5-dimethylthiazol-2yl]-diphenyltetrazolium bromide (MTT) colorimetric assay (Sigma, Lyon, France) according to the manufacturer’s instructions. When applicable, IC50 was calculated using the nonlinear regression method of the Prism 5 software (Graphpad Software Inc., San Diego, CA, USA). […] An MTT assay was conducted as described above to assess the fitness of the cells.

[1] = tested on: group 3 (D283, D458 and HD-MB03) and putative Shh group (DAOY) MB cell lines; experiment: MTT assay, mean IC50 over group 3 and Shh MB cell lines; type: cell-based; settings: Homo sapiens
Description: as §1

C8-D1A astrocytes = experiment: Cell viability, propidium iodine incorporation, C8-D1A; type: cell-based, murine; settings: 48 h; axitinib, cabozantinib, sunitinib 5 µM, etoposide 1 µM
Description: Cell viability assays were conducted using a propidium iodine incorporation technique with an ADAM-sHIT automated cell counter (NanoEnTek, Gyeonggi-do, Korea) according to the manufacturer’s protocol.

MB cells = experiment: Proliferation index assay, MB cells; type: cell-based, human; settings: after 120 h; axitinib 5 µM, etoposide 1 µM
Description: DAOY, D458, D283, C8-D1A and HDF (30,000 cells per well) and HD-MB03 (50,000 cells per well) were seeded in 24-well plates for proliferation assays.

HDF = experiment: Cumulative population doubling (CPD), HDF; type: cell-based, human; settings: transient treatment for 48 h, 5 µM
Description: Cumulative population doubling (CPD) was assessed as previously described. Briefly, depending on the cell line, a variable number of cells corresponding to about 30% confluency were seeded in triplicate in 60 mm diameter Petri dishes. […] The cells were harvested when the confluency reached about 90%, counted and plated again at a dilution of 1/20. CPD was calculated as previously described.

[2] = tested on: C8-D1A/HD-MB03 mixed spheroids; experiment: 3D mixed spheroids of astrocytes and MB cells; type: cell-based; settings: 7 days; axitinib 5 µM or etoposide 1 µM
Description: C8-D1A cells were stained with the green fluorescent probe neuro-DiO (cat. number 60015, Biotium, Fremont, CA, USA) according to the manufacturer’s protocol. C8-D1A-neuroDio cells (150,000) and HD-MB03-mCherry or DAOY-mCherry cells (50,000) were plated in 12-well plates. […] Fluorescence images of the cells were taken with a DMI400 inverted microscope (Leica Microsystemes SAS, Nanterre, France) equipped with a 40× objective and a Zyla 5.5 camera (Andor Technologies, Belfast, UK). The cells were then trypsinized and the number of both cell types was quantified using a Melody FACS (BD Biosciences, Frankton Lake, NJ, USA) with a 488 nm laser beam. Analysis of the FACS data was conducted with the Flowjo software (Tree Star Inc., Ashland, OR, USA).
Two thousand cells were seeded in ultralow-adhesion 96-well plates (Corning Inc., Corning, NY, USA). […] Pictures were taken with an AMG Evos microscope 40× objective (Thermo Fisher Scientific Inc, Waltham, MA, USA) and the spheroid areas were measured using the ImageJ software (NIH, Bethesda, MD, USA).

20-day-old Wistar rats = experiment: Juvenile rat toxicity experiment; type: in vivo; settings: 50 mg/kg daily, oral gavage, four weeks; female and male
Source text: The experiments were approved by Comité National Institutionnel d’Ethique pour l’Animal de Laboratoire (France). The rats were bled and the brains were recovered and flash-frozen at the end of the experiment.

[3] = tested on: barrier formed by BEC (hCMEC/D3); experiment: In vitro BBB permeability assay (FITC-Dextran), BEC; type: cell-based, human; settings: 3-day treatment, nontoxic doses
Description: (§2) This assay was conducted as previously described. […] Permeability was measured by the passage of 40 kDa FITC-Dextran through the inserts. Fluorescence intensity measures were normalized to the DMSO control.

barrier formed by HUVEC = experiment: In vitro endothelium permeability assay (FITC-Dextran), HUVEC; type: cell-based, human; settings: 3-day treatment, nontoxic doses
Description: as §2

[4] = tested on: HD-MB03 intracranial tumors
Description: HD-MB03-Luc spheroids were stereotaxically implanted into the brains of 9-week-old Rj:NMRI-Foxn1 nude (nu/nu) female mice (Janvier Labs, Le Genest-Saint-Isle, France). Briefly, MB spheroids were generated with 2500 cells grown for 48 h in ultralow-adhesion spheroid 96-well plates (Corning, Corning, NY, USA) and three spheroids per mouse were implanted into the left cerebellar hemisphere (2 mm posterior, 1.5 mm left of the lambda point and 2.5 mm deep) using a Hamilton syringe fitted with a needle (Hamilton, Bonaduz, Switzerland) and following the procedure already described. […] Oral gavage with a vehicle solution was used as the control. Mouse survival was based on the presence of neuropathological symptoms including gait defects and a loss of weight over 10% as endpoints. A minimum of five mice per group was chosen to yield sufficient statistical power (p < 0.05, one-way ANOVA). These experiments were carried out in strict accordance with the recommendations in the Guide for the Care and Use of Laboratory Animals. Our experiments were approved by Direction de l’Action Sanitaire et Sociale of the Principality of Monaco and the ethics committee of Centre Scientifique de Monaco.
Tumor samples were recovered from the animals and embedded in the OCT compound according to the manufacturer’s protocol (Thermo Fisher Scientific Inc., Waltham, MA, USA). After that, 5 µm thin sections were prepared with a cryostat (Leica Microsystems, Wetzlar, Germany). Incubation was carried out with the following antibodies diluted at 1:1000 in TBS supplemented with 1% horse serum and 1% BSA for 20 min at room temperature: anti-Ki67 (cat. number ab16667, Abcam, Cambridge, UK), anti-CD31 (cat. number 550274, BD Biosciences, Frankton Lake, NJ, USA) or anti-αSMA (cat. number A2547, Merck Millipore, Burlington, MA, USA). The preparations were then washed with TBS–0.025% Triton, incubated with anti-rabbit Alexa488 and anti-mouse Alex-555-coupled secondary antibodies (Cell Signaling Technology, Danvers, MA, USA), washed with TBS–0.025% Triton, and the nuclei were counterstained with Hoechst33342 (Thermo Fisher Scientific, Waltham, MA, USA). Fluorescence images of the cells were taken with a DMI400 inverted microscope equipped with a 40× objective (Leica Microsystemes, Nanterre, France) and a Zyla 5.5 camera (Andor Technologies, Belfast, UK) powered by the Micromanager software. At least one cross-section of nonoverlapping images of each tumor was acquired. All the images were then quantified with the CellProfiler 3.0 software.

CNC(=O)c1ccccc1Sc1ccc2c(/C=C/c3ccccn3)n[nH]c2c1 [Axitinib, axitinib]
IC50 (DAOY): 2.3 ± 1.5 µM
IC50 [1]: 1100 ± 900 nM
viability of C8-D1A normal cells (C8-D1A astrocytes): no effect on the viability
reduction of proliferation of MB cells (MB cells): more than 80%
proliferation (CPD) of HDF normal cells after removal of the drug (HDF): able to proliferate again
size of mixed spheroids [2]: strong decrease in the size of spheroids
general behavior and growth rate of juvenile rats (20-day-old Wistar rats): no effect on the general behavior and growth rate
permeability of the barrier formed by BEC [3]: permeabilized the barrier
permeability of the barrier formed by HUVEC (barrier formed by HUVEC): permeabilized the barrier
number of CD31-positive and αSMA-positive double-stained structures (vessels covered with pericytes) ([4]; metronomic oral treatment): decreased the number
intracranial tumor growth (BLI) ([4]; oral, five times a week, axitinib 50 mg/kg, combination 25 + 15 mg/kg): reduced tumor growth
survival of mice with intracranial tumors ([4]; oral, five times a week, axitinib 50 mg/kg, etoposide 30 mg/kg, combination 25 + 15 mg/kg): increased survival of the animals
